# Results as given in patent publication US8501759B2, “Use of fibrates” (Fournier Laboratories Ireland Limited, priority 2009, dated 2013).
# Key:
# [1] = system: patients with sleep apnea syndrome; test: Overnight sleep study: pulse oximetry (SpO2, desaturations); format: in vivo, human
# Source text: (§1) Primary variables: number of obstructive apneas, of central apneas, of mixed apneas, total number of apneas, index of apnea per sleep hour, total number of hypopneas, index of hypopnea per sleep hour, index of apnea/hypopnea per sleep hour, total number of desaturations per sleep hour (with a variation of at least 3-4%), and percentage of time spent with SpO2<90%.
# (§2) Variables assessed as complementary analyses: cumulated duration of apnea, mean duration of apnea, duration of the longest apnea, number of non cortical micro-awakening indicators related to respiratory events/hour, number of non cortical micro-awakening indicators related to respiratory events, oxygen saturation in blood measured by pulse oximetry (SpO2) in wake state, mean SpO2 on sleep recording, minimum value of SpO2, percentage of time spent with SpO2<80%, percentage of time spent with SpO2<85%, number of tachycardia, mean duration of tachycardia, number of bradycardia, mean duration of bradycardia, mean pulse rate, standard deviation pulse rate, minimum pulse rate, maximum pulse rate, decrease in daytime sleepiness assessed by the ESS, vigilance tests (reflexive visually guided saccades, antisaccades and sustained attention test).
# Desaturation episodes were the markers of respiratory impairment. All-night recordings of arterial oxygen saturation were obtained using a cardio-respiratory pulse oximeter attached to the finger (SpO2).
# Severity of obstructive sleep apnea was measured by the number of falls in SpO2 of more than 3-4% per hour of sleep. The equipment automatically selected the desaturation threshold (3 or 4%) according to the baseline SpO2 value. To further define the severity of OSA, the lowest SpO2 point and the percentage of time spent with SpO2<90% was determined.
# [2] = system: patients with sleep apnea syndrome; test: Safety (adverse events, safety laboratory, vital signs)
# [3] = system: patients with sleep apnea syndrome; test: Laboratory efficacy variables (lipids, glucose, fibrinogen, insulin); format: in vivo, human
# Protocol: Secondary variables: % change from baseline (V2) in fasting and post-prandial TG, total cholesterol (TC), high-density lipoprotein cholesterol (HDL-C), fasting plasma glucose (FPG), fibrinogen and insulin.
# TC, TG, HDL-C, glucose, fibrinogen and insulin were measured at inclusion and during the 2 hospital admissions before a lipid rich breakfast. Insulin was also measured before the lipid rich breakfast, each morning following the sleep study.
# Post-prandial TG were measured 4 hours after a lipid rich breakfast.
# [4] = system: patients with sleep apnea syndrome; test: Sustained attention test; conditions: end of treatment (V3)
# [5] = 160 mg tablet administered with food; cited from earlier work
# [6] = system: patients with sleep apnea syndrome; test: Overnight sleep study: apnea/hypopnea recording (CID 102) in the 1-month placebo-controlled study; format: in vivo, human
# Source text: This study comprised 2 phases: • a run-in period of 1 to 5 weeks, on usual diet, • a treatment period of at least 4 weeks (40 days maximum).
# as §1, §2
# Throughout the night, respiration was monitored by a sound pressure transducer placed on the suprasternal notch facing the trachea or thoracic strain gauges (model CID 102) (Van Surell C, Lemaigre D, Leroy M, Foucher A, Hagenmuller M P, Raffestin B. Evaluation of an ambulatory device, CID 102, in the diagnosis of obstructive sleep apnea syndrome. Eur Respir J. 1995; 8(5):795-800).
# Apnea is defined as an absence of inspiratory flow for at least 10 seconds.
# Hypopnea is defined as a 50% to 80% reduction in airflow combined with 3-4% oxygen desaturations.
# Sleep apneas are classified as obstructive or central.
# Central apneas are defined as total absence of inspiratory flow and chest/abdominal movement during the period of absence of inspiration flow.
# Obstructive sleep apneas are defined by a decrease in airflow of more than 80% in the presence of paradoxical movements of the ribcage and abdomen. Similar to AHI, the obstructive and central apneas were based on definitions that require events to be associated with 3-4% desaturations.
# [7] = system: patients with sleep apnea syndrome; test: Epworth Sleepiness Scale (ESS); format: in vivo, human; conditions: fenofibrate group, at baseline and at end of treatment; global score 0 to 24
# Source text: as §2
# This scale is the most widely index used to measure sleep apnea subjectively. It is a self-administered questionnaire that asks patients their likelihood of falling asleep in 8 situations ranked from 0 (no chance of dozing), 1 (slight chance of dozing), 2 (moderate chance of dozing) to 3 (high chance of dozing). The numbers are then added together to obtain a global score between 0 and 24. A value of 10 or below is considered normal.
# [8] = ANCOVA on Log-transformed V3 values, relative difference
# [9] = end of treatment (V3), ANCOVA on non-transformed data
# [10] = fenofibrate 145 mg group, end of treatment (V3)
# [11] = fenofibrate group, treatment period
# [12] = end of treatment (V3), ANCOVA on Log-transformed data, relative difference
# [13] = end of treatment (V3), ANCOVA on non-transformed data, absolute difference
smiles,measurement,setting,value
"CC(C)OC(=O)C(C)(C)Oc1ccc(C(=O)c2ccc(Cl)cc2)cc1 [Fenofibrate, fenofibrate]","Number of desaturations, Fenofibrate-Placebo at end of treatment, Estimate",[1]; [8],−23%
same,"Mean of SPO2 on recording, Fenofibrate-Placebo Estimate",[1]; [9],1.1%
same,"Minimum value of SpO2, Fenofibrate-Placebo Estimate",[1]; [9],0.4%
same,"Mean of SPO2 on recording, End (V3) (median)",[1]; [10],94.0%
same,"Minimum value of SpO2, End (V3) (median)",[1]; [10],82.0%
same,"Number of desaturations, End (V3) (median)",[1]; [10],130.0
same,"Percentage of time with SpO2 < 90%, End (V3) (median)",[1]; [10],3.5%
same,"Percentage time spent with SpO2 < 80%, End (V3) (median)",[1]; [10],0.0%
same,"Percentage time spent with SpO2 < 85%, End (V3) (median)",[1]; [10],0.0%
same,"SpO2 in wake state, End (V3) (median)",[1]; [10],95.0%
same,tolerability,"[2]; 4-week treatment, 145 mg once daily",well tolerated
same,"changes in mean values of pulse rate, DBP or SBP between baseline and end of treatment",[2]; either treatment group,no meaningful changes
same,"other safety biological variables (ALT, AST, CK), fenofibrate vs placebo",[2]; end of treatment,did not differ between the 2 groups
same,Median % change at end of treatment from baseline in RBC,[2]; fenofibrate group,−2.7%
same,Median % change at end of treatment from baseline in WBC,[2]; fenofibrate group,−11.6%
same,Median % change at end of treatment from baseline in hematocrit,[2]; fenofibrate group,−3.2%
same,Median % change at end of treatment from baseline in hemoglobin,[2]; fenofibrate group,−3.8%
same,AEs reported (kinds),[2]; [11],"bloating (n=1), rash (n=1), allergic rhinitis (n=1), metabolic syndrome (SAE, n=1), type 2 diabetes (n=1), and cystitis (n=1)"
same,number of AEs reported,[2]; [11],6
same,number of patients with AEs,[2]; [11],3
same,number of SAE reported during the treatment period,"[2]; fenofibrate group, hospitalized for assessment of metabolic syndrome, not related to study treatment",1
same,Median % change at end of treatment from baseline in platelets,"[2]; fenofibrate group, p=0.007 vs placebo",+4.7%
same,Median % change at end of treatment from baseline in creatinine,"[2]; fenofibrate group, p=0.015 vs placebo",+5.9%
same,mean values of body weight and BMI at end of treatment compared to baseline,[2]; in vivo,remained roughly unchanged
same,AEs considered as related to study treatment,[2]; treatment period,None
same,effect on fasting plasma glucose (FPG),[3]; end of treatment,no effect
same,"HDL-Cholesterol, Fenofibrate-Placebo Estimate",[3]; [12],2%
same,"Post-Prandial Triglycerides, Fenofibrate-Placebo Estimate",[3]; [12],−26%
same,"Fasting Plasma Glucose, Fenofibrate-Placebo Estimate",[3]; [13],0.2 mmol/L
same,"Fibrinogen, Fenofibrate-Placebo Estimate",[3]; [13],-1.7 µmol/L
same,"Insulin, Fenofibrate-Placebo Estimate",[3]; [13],12.1 pmol/L
same,"Total Cholesterol, Fenofibrate-Placebo Estimate",[3]; [13],-0.8 mmol/L
same,"Fasting Plasma Glucose, End (V3) (median)",[3]; [10],5.45 mmol/L
same,"Fasting Triglycerides, End (V3) (median)",[3]; [10],2.00 mmol/L
same,"Fibrinogen, End (V3) (median)",[3]; [10],8.82 µmol/L
same,"Insulin, End (V3) (median)",[3]; [10],94.4 pmol/L
same,"Total Cholesterol, End (V3) (median)",[3]; [10],4.58 mmol/L
same,"Post-Prandial Triglycerides, End (V3) (median)","[3]; fenofibrate 145 mg group, end of treatment (V3), 4 hours after a lipid rich breakfast",3.27 mmol/L
same,"Maximum latency all sarters, Fenofibrate-Placebo Estimate","[4]; ANCOVA on Log-transformed data, relative difference",7%
same,"Mean latency all sarter, Fenofibrate-Placebo Estimate","[4]; ANCOVA on non-transformed data, absolute difference",3.6 ms
same,"Maximum latency all sarters, End (V3) (median)",[4]; fenofibrate 145 mg group,750.0 ms
same,"Minimum latency all sarters, End (V3) (median)",[4]; fenofibrate 145 mg group,295.0 ms
same,"Percent false responses all sarters, End (V3) (median)",[4]; fenofibrate 145 mg group,1.1
same,"Percent omissions all sarters, End (V3) (median)",[4]; fenofibrate 145 mg group,0.0
same,"Standard Deviation latency all sarters, End (V3) (median)",[4]; fenofibrate 145 mg group,98.0 ms
same,"Mean latency all sarter, End (V3) (median)","[4]; fenofibrate 145 mg group, mean of the 5 tests",409.7 ms
same,increase of exposure to fenofibric acid with food compared to fasting conditions,[5],35%
same,"Number of central apneas, Fenofibrate-Placebo at end of treatment, Estimate",[6]; [8],−55%
same,"Number of hypopneas, Fenofibrate-Placebo at end of treatment, Estimate",[6]; [8],−46%
same,"Number of mixed apneas, Fenofibrate-Placebo at end of treatment, Estimate",[6]; [8],−25%
same,"Number of obstructive apneas, Fenofibrate-Placebo at end of treatment, Estimate",[6]; [8],−44%
same,"Number of apneas, Fenofibrate-Placebo at end of treatment, Estimate","[6]; ANCOVA on Log-transformed V3 values, relative difference, minus = improvement",−35%
same,"Cumulated duration of apnea, Fenofibrate-Placebo Estimate","[6]; end of treatment (V3), ANCOVA on Log-transformed data",−31%
same,"Number of non cortical micro-awakening, Fenofibrate-Placebo Estimate",[6]; [9],−75.7
same,"Cumulated duration of apnea, End (V3) (median)",[6]; [10],4.5 min
same,"Duration of the longest apnea, End (V3) (median)",[6]; [10],23.5 s
same,"Mean duration of apnea, End (V3) (median)",[6]; [10],13.5 s
same,"Number of central apneas, End (V3) (median)",[6]; [10],1.0
same,"Number of hypopneas, End (V3) (median)",[6]; [10],63.0
same,"Number of mixed apneas, End (V3) (median)",[6]; [10],1.0
same,"Number of non cortical micro-awakening, End (V3) (median)",[6]; [10],128.0
same,"Number of obstructive apneas, End (V3) (median)",[6]; [10],15.0
same,"Number of apneas, End (V3) (median)","[6]; fenofibrate 145 mg group, end of treatment (V3), total number during sleep recording",20.5
same,"Non cortical micro-awakening per hour, End (V3) (median)","[6]; fenofibrate 145 mg group, end of treatment (V3), indicators related to respiratory events",18.0
same,median of the ESS,[7],8.5
